# Several values for one entry are separate records, joined by “and”; a condition that tells them apart may be missing. Identical values can stand only once.
# Experiments:
# [1] = molecular target: C. perfringens GUS (Clostridium perfringens, UniProt Q8XP19); experiment: biochemical
# [2] = tested on: F. prausnitzii 2-L1 (Fp2-L1) GUS; experiment: In vitro IC50 assay (TCS-G to TCS conversion, HPLC); format: biochemical; settings: for F. prausnitzii 2-L1 GUS %inhibition: Fig. 4b, triplicate
# [3] = molecular target: Eubacterium sp. CAG: 76 GUS (Eubacterium sp. CAG:76, UniProt Z9TO06ZFY0); experiment: as above; format: biochemical; settings: Fig. 4c, triplicate
# Sequence of Eubacterium sp. CAG: 76 GUS (Z9TO06ZFY0 1-737): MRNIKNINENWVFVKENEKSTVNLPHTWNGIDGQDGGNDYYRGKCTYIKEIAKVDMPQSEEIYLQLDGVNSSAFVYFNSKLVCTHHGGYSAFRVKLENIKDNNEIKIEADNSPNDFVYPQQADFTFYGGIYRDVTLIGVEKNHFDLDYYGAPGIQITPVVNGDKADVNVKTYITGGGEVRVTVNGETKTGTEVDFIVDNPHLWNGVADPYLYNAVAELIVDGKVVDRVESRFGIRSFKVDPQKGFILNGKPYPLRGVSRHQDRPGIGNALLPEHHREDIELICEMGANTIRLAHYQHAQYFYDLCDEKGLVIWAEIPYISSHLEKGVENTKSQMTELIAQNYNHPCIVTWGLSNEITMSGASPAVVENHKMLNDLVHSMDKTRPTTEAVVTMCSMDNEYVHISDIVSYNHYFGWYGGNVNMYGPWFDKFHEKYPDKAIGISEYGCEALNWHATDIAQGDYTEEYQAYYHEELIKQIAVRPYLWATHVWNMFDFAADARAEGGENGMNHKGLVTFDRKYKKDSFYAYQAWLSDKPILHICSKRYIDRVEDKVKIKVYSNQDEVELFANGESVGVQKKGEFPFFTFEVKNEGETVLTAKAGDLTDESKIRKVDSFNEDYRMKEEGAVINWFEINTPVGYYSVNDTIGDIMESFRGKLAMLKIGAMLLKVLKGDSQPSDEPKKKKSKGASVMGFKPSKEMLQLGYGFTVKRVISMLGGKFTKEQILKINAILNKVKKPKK
# [4] = tested on: C57BL/6 mice; experiment: Effects of GUSi on gut inflammation in mice not stimulated with DSS; format: in vivo; set-up: TNF (Fig.S12e) / IL-6 (Fig.S12e) / IL-10 (Fig.S12e) / MCP-1 (Fig.S12e): unit not given here
# [5] = tested on: MC38 cells; experiment: Cell proliferation assay (MTT); format: cell-based, mouse
# Protocol: Mouse (MC38) or human (Caco2 and HCT-116) intestinal cells were grown in DMEM medium fortified with 10% FBS (EMD Millipore Corporation). The cells were seeded in 96-well plates, then treated with GUSi or vehicle (0.2% v/v DMSO) for 24 h. Cell viability was determined using an MTT assay.
# Fig. S14. GUSi treatment has little effect on the proliferation of mouse or human intestinal cells in vitro.
# Mouse (MC38) or human (Caco2 and HCT-116) intestinal cells were treated with GUSi or vehicle (0.2% v/v
# DMSO) for 24 h, then cell viability was analyzed using a MTT assay. The data are mean ± SEM, n = 5-6 per
# [6] = Solubility in water (statement); format: physicochemical; settings: authors' reply to reviewers
# [7] = tested on: mammalian GUS enzyme; set-up: method as in PMID 30062115; settings: cited from earlier work
# [8] = tested on: epithelial cells in the ileum, proximal or distal colon; set-up: method as in PMID 32170007; settings: proximal or distal colon of the treated mice; cited from earlier work
# [9] = tested on: fecal microbiota; experiment: 16S rRNA sequencing of fecal microbiota of GUSi-treated mice; settings: 1 mg/kg GUSi via oral gavage
# [10] = tested on: MC38 cells; experiment: Inflammatory response of MC38 intestinal epithelial cells (Il-6 RT-qPCR, IL-6 ELISA); format: cell-based, mouse; settings: for Il-6 (Fig. S16b) / IL-6 (Fig. S16c): MC38 cells, replicates; for Il-6 (Fig. S16b): gene expression; for IL-6 (Fig. S16c): protein
# Protocol: MC38 intestinal epithelial cells were cultured in Dulbecco’s Modified Eagle Medium (DMEM) supplemented with 10% fetal bovine serum (FBS) and incubated at 37 °C under an atmosphere of 5% CO2. MC38 cells were seeded at 20% confluency and left to settle overnight. Cells were then treated with either 1 μM TCS, TCS-G, or vehicle (DMSO). After 48 h, cells were harvested for RT-qPCR analysis. Cell medium was collected for ELISA analysis using the CBA Mouse Inflammation Kit (BD Sciences) according to the manufacturer’s instructions, and data were acquired using a BD LSR Fortessa flow cytometer (BD Biosciences) and analyzed using FlowJo software (Treestar).
# Total RNA of colon tissues and MC38 cells were isolated using Trizol reagent (Ambion) according to the manufacturer’s instruction. RNA was reverse transcribed into cDNA using the High Capacity cDNA Reverse Transcription kit (Applied Biosystem) according to the manufacturer’s instructions. In all, 20 μL PCR reactions were prepared using the Maxima SYBR Green Master Mix (Thermo Fisher Scientific), and qPCR was carried out using a DNA Engine Opticon System (Bio-Rad Laboratories). Mouse-specific primer sequences (Thermo Fisher Scientific) used to detect inflammatory biomarkers are listed in Supplementary Table S6. Gapdh expression was used as an internal control.
# a. Cultured murine intestinal epithelial MC38 cells were treated with 1 μM of TCS or TCS-G for 48 h prior to
# studying inflammatory responses. b. TCS increases the expression of Il-6, which encodes the pro-inflammatory
# n = 3 per group from three independent experiments, * P < 0.05, ** P < 0.01, *** P < 0.001.
# [11] = set-up: method as in earlier work; settings: human, ref 32,33 (reply to reviewers), cited from earlier work
# [12] = cited from earlier work
# [13] = tested on: Rh3 GUS mutants; experiment: Catalytic efficiency assay, wild-type and mutant Rh3 GUS; format: biochemical, R. hominis; settings: Fig. 3j, replicates 1-3
# [14] = read-out: C. perfringens GUS % inhibition
# [15] = 1 mg/kg GUSi via oral gavage, 3- to 4-week treatment
# [16] = cytokine level, individual mice, no DSS
# [17] = gene expression, individual mice, no DSS
# Sequence of C. perfringens GUS (Q8XP19 whole entry, looked up): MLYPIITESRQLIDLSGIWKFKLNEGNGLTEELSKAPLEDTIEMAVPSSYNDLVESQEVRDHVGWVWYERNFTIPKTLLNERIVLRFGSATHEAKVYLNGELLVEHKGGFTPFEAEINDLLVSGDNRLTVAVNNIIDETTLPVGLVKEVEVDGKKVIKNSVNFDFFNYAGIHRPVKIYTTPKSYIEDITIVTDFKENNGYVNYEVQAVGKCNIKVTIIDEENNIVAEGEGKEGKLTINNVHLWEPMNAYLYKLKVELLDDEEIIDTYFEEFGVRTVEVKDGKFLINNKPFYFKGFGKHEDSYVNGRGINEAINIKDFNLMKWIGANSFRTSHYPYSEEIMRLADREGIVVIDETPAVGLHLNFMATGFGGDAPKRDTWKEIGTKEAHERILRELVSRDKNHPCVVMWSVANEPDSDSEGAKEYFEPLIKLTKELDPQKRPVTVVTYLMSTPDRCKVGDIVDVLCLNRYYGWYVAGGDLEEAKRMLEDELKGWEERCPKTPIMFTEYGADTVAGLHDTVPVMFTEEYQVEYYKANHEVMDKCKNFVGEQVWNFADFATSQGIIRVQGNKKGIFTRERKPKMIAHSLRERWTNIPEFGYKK
compound,measurement,setting,value
"C1CCc2c(c(N3CCOCC3)nc3sc4c(N5CCNCC5)nnnc4c23)C1 [GUSi, UNC10201652]",IC50,[1],640 ± 40 nM
same,inhibition at 1.23457 µM,[1]; [14],78%
same,inhibition at 3.7037 µM,[1]; [14],93.9%
same,inhibition at 11.1111 µM,[1]; [14],97.7%
same,inhibition at 33.3333 µM,[1]; [14],98.6%
same,inhibition at 100 µM,[1]; [14],99.4%
same,F. prausnitzii 2-L1 GUS %inhibition,[2]; GUSi 0.0457247 uM,0% and 0.2667%
same,F. prausnitzii 2-L1 GUS %inhibition,[2]; GUSi 0.137174 uM,0% and 0.1263%
same,F. prausnitzii 2-L1 GUS %inhibition,[2]; GUSi 0.411523 uM,0%
same,F. prausnitzii 2-L1 GUS %inhibition,[2]; GUSi 3.7037 uM,74.6624% and 62.5632% and 66.5428%
same,F. prausnitzii 2-L1 GUS %inhibition,[2]; GUSi 11.1111 uM,93.6484% and 88.7563% and 88.6045%
same,F. prausnitzii 2-L1 GUS %inhibition,[2]; GUSi 33.3333 uM,99.4351% and 98.0067% and 94.7151%
same,F. prausnitzii 2-L1 GUS %inhibition,[2]; GUSi 100 uM,100.964% and 99.7754% and 96.4492%
same,IC50,"[2]; conversion of TCS-G (200 µM) to TCS, Loop 1 GUS",2800 ± 100 nM
same,inhibition at 11.1111 µM,[3]; GUSi 11.1111 uM,57.2%
same,inhibition at 33.3333 µM,[3]; GUSi 33.3333 uM,73.6%
same,inhibition at 100 µM,[3]; GUSi 100 uM,84.1%
same,effect on body weight,[4]; [15],little effects
same,effect on colon histology,[4]; [15],little effects
same,effect on colon length,[4]; [15],little effects
same,effect on colonic or systematic inflammation,[4]; [15],little effects
same,IFN (Fig.S12e),[4]; [16],0
same,IL-6 (Fig.S12e),[4]; [16],13.43 and 0 and 6.45
same,IL-10 (Fig.S12e),[4]; [16],37.4 and 0 and 198.61 and 44.6 and 23.86
same,IL-12P70 (Fig.S12e),[4]; [16],25.71 and 0 and 88.12
same,MCP-1 (Fig.S12e),[4]; [16],48.03 and 146.49 and 57.21 and 61.62 and 184.9 and 179.76 and 331.3 and 143.93
same,TNF (Fig.S12e),[4]; [16],60.3 and 20.04 and 10.87 and 8.58 and 0 and 48.52 and 31.51 and 26.47
same,ifn (Fig.S12d),[4]; [17],0.5314 and 0.5552 and 0.6727 and 2.025 and 1.546 and 2.975 and 0.7505 and 0.9593
same,il6 (Fig.S12d),[4]; [17],0.9822 and 0.6373 and 0.485 and 1.527 and 0.9215 and 0.6364 and 1.1212 and 1.239
same,il17 (Fig.S12d),[4]; [17],1.45 and 0.9375 and 0.5532 and 1.296 and 0.6529 and 0.514 and 0.9732 and 1.7301
same,il-1b (Fig.S12d),[4]; [17],1.675 and 3.673 and 1.563 and 0.709 and 1.249 and 2.221 and 3.587 and 1.198
same,il-10 (Fig.S12d),[4]; [17],1.7121 and 1.046 and 0.8638 and 1.378 and 1.892 and 1.921 and 0.8229 and 0.4425
same,il-23 (Fig.S12d),[4]; [17],1.384 and 0.7725 and 0.7614 and 1.398 and 2.3746 and 0.7478 and 0.414 and 0.4606
same,mcp1 (Fig.S12d),[4]; [17],1.246 and 0.6949 and 0.7972 and 1.205 and 1.387 and 0.8717 and 0.5743 and 0.5267
same,tlr-4 (Fig.S12d),[4]; [17],1.193 and 1.155 and 1.078 and 1.23 and 1.258 and 1.02 and 0.5994 and 0.6478
same,tnf (Fig.S12d),[4]; [17],0.9505 and 1.516 and 0.4248 and 0.7567 and 1.942 and 2.3131 and 2.563 and 2.05
same,effect on cell growth (MTT),"[5]; 24-h treatment, concentration up to 10 µM",little effect
same,Cell proliferation (Fig. S14),"[5]; MC38, concentration 1, replicates",97.1748 and 94.9589 and 98.929 and 107.192 and 94.0356 and 103.315
same,Cell proliferation (Fig. S14),"[5]; MC38, concentration 2, replicates",103.453 and 99.2983 and 100.314 and 103.361 and 103.084 and 108.023
same,Cell proliferation (Fig. S14),"[5]; MC38, concentration 5, replicates",85.9108 and 74.139 and 84.9875 and 91.9121 and 86.7418 and 84.0181
same,Cell proliferation (Fig. S14),"[5]; MC38, concentration 10, replicates",68.784 and 87.3419 and 84.2489 and 91.7736 and 82.9102
same,solubility in water,[6],poorly solubilized
same,effect on the activity of mammalian GUS enzyme,[7],no effect
same,effect on the proliferation of epithelial cells,[8],no effect
same,effect on the diversity or composition of fecal microbiota,[9],little effect
"Oc1cc(Cl)ccc1Oc1ccc(Cl)cc1Cl [TCS, Triclosan]",Il-6 gene expression,"[10]; 1 µM, 48 h",increased
same,medium concentration of IL-6 (ELISA),"[10]; 1 µM, 48 h",increased
same,Il-6 (Fig. S16b),[10],2.497 and 4.058 and 2.001 and 8.229 and 6.742 and 2.645 and 3.872 and 1.125 and 4.892
same,IL-6 (Fig. S16c),[10],31 pg/mL and 44.92 pg/mL and 38.72 pg/mL and 36.69 pg/mL and 44.27 pg/mL and 53.91 pg/mL and 47.57 pg/mL and 30.74 pg/mL and 39.61 pg/mL
same,plasma concentrations of TCS (TCS plus TCS-G),[11]; after weeks of daily use of TCS-containing toothpaste,"90–1,000 nM"
same,"plasma concentrations of TCS (TCS plus TCS-G), baseline",[11]; before use of TCS-containing toothpaste,0.03 to 2.7 nM
same,No-Observed-Adverse-Effect Level (NOAEL),[12]; ref 36 (reply to reviewers),25 to 40 mg/kg/day
same,calculated Acceptable Daily Intake (ADI),[12]; ref 37 (reply to reviewers),0.25 to 0.4 mg/kg/day
"O=C(O)C1OC(Oc2cc(Cl)ccc2Oc2ccc(Cl)cc2Cl)C(O)C(O)C1O (centres unmarked) [TCS-G, triclosan-glucuronide]",Catalytic efficiency,[13]; Enzyme: Rh3 F406A,147440 M⁻¹ s⁻¹ and 148640 M⁻¹ s⁻¹ and 151680 M⁻¹ s⁻¹
same,Catalytic efficiency,[13]; Enzyme: Rh3 L635STOP,0 M⁻¹ s⁻¹
same,Catalytic efficiency,[13]; Enzyme: Rh3 Y430A,0 M⁻¹ s⁻¹
same,Il-6 gene expression,"[10]; 1 µM, 48 h",does not
same,Il-6 (Fig. S16b),[10],1.072 and 0.7026 and 0.674 and 0.599 and 2.104 and 1.745 and 1.341 and 2.8489 and 1.88
same,IL-6 (Fig. S16c),[10],30.76 pg/mL and 26.1 pg/mL and 35.84 pg/mL and 30.49 pg/mL and 20.04 pg/mL and 13.78 pg/mL and 35.28 pg/mL and 36.12 pg/mL and 25.88 pg/mL

# Source: PMC8748916, “Microbial enzymes induce colitis by reactivating triclosan in the mouse gastrointestinal tract” (Nature Communications, 2022)
